Tested on: Metabolism protein genes
Test: DNA chip mRNA expression in yeast, metabolism protein genes (Table 7)
Type: cell-based, Saccharomyces cerevisiae S288C
Outline: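 First, S288C yeast grown in YPD at 25° C. are dosed in log phase with one toxicant (growth-inhibiting, not lethal) for 2 h. Next, total RNA is extracted and poly(A) mRNA isolated and reverse-transcribed with Cy3/Cy5-dUTP. Finally, whole-genome chip fluorescence is read relative to unexposed cells.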

Compound: S=C([S-])NCCNC(=S)[S-].[Zn+2] [(11), zinc N,N′-ethylenebis(dithiocarbamate)]
- The level of expressed mRNA in the presence of chemical substance/The level of expressed mRNA in the absence of chemical substance (yeast gene YAL012W): 4.0
- The level of expressed mRNA in the presence of chemical substance/The level of expressed mRNA in the absence of chemical substance (yeast gene YAL038W): 1.0
- level of expressed mRNA in the presence/in the absence of chemical substance (yeast gene YBR003W): 1.3
- level of expressed mRNA in the presence/in the absence of chemical substance (yeast gene YBR011C): 1.7
- level of expressed mRNA in the presence/in the absence of chemical substance (yeast gene YBR020W): 1.0
- The level of expressed mRNA in the presence of chemical substance/The level of expressed mRNA in the absence of chemical substance (yeast gene YBR023C): 0.9
- The level of expressed mRNA in the presence of chemical substance/The level of expressed mRNA in the absence of chemical substance (yeast gene YBR029C): 0.7
- The level of expressed mRNA in the presence of chemical substance/The level of expressed mRNA in the absence of chemical substance (yeast gene YBR183W): 1.9
- The level of expressed mRNA in the presence of chemical substance/The level of expressed mRNA in the absence of chemical substance (yeast gene YBR222C): 1.3
- The level of expressed mRNA in the presence of chemical substance/The level of expressed mRNA in the absence of chemical substance (yeast gene YBR256C): 3.2
- The level of expressed mRNA in the presence of chemical substance/The level of expressed mRNA in the absence of chemical substance (yeast gene YCL009C): 1.5
- The level of expressed mRNA in the presence of chemical substance/The level of expressed mRNA in the absence of chemical substance (yeast gene YCL064C): 1.8
- level of expressed mRNA in the presence/in the absence of chemical substance (yeast gene YCR010C): 1.1
- level of expressed mRNA in the presence/in the absence of chemical substance (yeast gene YCR034W): 0.8
- The level of expressed mRNA in the presence of chemical substance/The level of expressed mRNA in the absence of chemical substance (yeast gene YCR048W): 1.2
- The level of expressed mRNA in the presence of chemical substance/The level of expressed mRNA in the absence of chemical substance (yeast gene YCR098C): 1.3
- The level of expressed mRNA in the presence of chemical substance/The level of expressed mRNA in the absence of chemical substance (yeast gene YDR019C): 1.8
- level of expressed mRNA in the presence/in the absence of chemical substance (yeast gene YDR050C): 2.0
- level of expressed mRNA in the presence/in the absence of chemical substance (yeast gene YDR073W): 1.0
- level of expressed mRNA in the presence/in the absence of chemical substance (yeast gene YDR123C): 0.6
- level of expressed mRNA in the presence/in the absence of chemical substance (yeast gene YDR178W): 2.0
- level of expressed mRNA in the presence/in the absence of chemical substance (yeast gene YDR277C): 1.2
- level of expressed mRNA in the presence/in the absence of chemical substance (yeast gene YDR284C): 1.3
- level of expressed mRNA in the presence/in the absence of chemical substance (yeast gene YDR345C): 1.5
- The level of expressed mRNA in the presence of chemical substance/The level of expressed mRNA in the absence of chemical substance (yeast gene YDR380W): 0.4
- level of expressed mRNA in the presence/in the absence of chemical substance (yeast gene YDR400W): 1.3
- level of expressed mRNA in the presence/in the absence of chemical substance (yeast gene YDR408C): 1.7
- level of expressed mRNA in the presence/in the absence of chemical substance (yeast gene YDR483W): 1.4
- The level of expressed mRNA in the presence of chemical substance/The level of expressed mRNA in the absence of chemical substance (yeast gene YDR497C): 0.7
- The level of expressed mRNA in the presence of chemical substance/The level of expressed mRNA in the absence of chemical substance (yeast gene YDR502C): 1.3
- The level of expressed mRNA in the presence of chemical substance/The level of expressed mRNA in the absence of chemical substance (yeast gene YDR516C): 2.8
- level of expressed mRNA in the presence/in the absence of chemical substance (yeast gene YEL063C): 0.8
- level of expressed mRNA in the presence/in the absence of chemical substance (yeast gene YER015W): 1.0
- The level of expressed mRNA in the presence of chemical substance/The level of expressed mRNA in the absence of chemical substance (yeast gene YER026C): 0.9
- The level of expressed mRNA in the presence of chemical substance/The level of expressed mRNA in the absence of chemical substance (yeast gene YER053C): 2.4
- The level of expressed mRNA in the presence of chemical substance/The level of expressed mRNA in the absence of chemical substance (yeast gene YER069W): 1.5
- level of expressed mRNA in the presence/in the absence of chemical substance (yeast gene YER081W): 1.1
- The level of expressed mRNA in the presence of chemical substance/The level of expressed mRNA in the absence of chemical substance (yeast gene YER096W): 1.1
- level of expressed mRNA in the presence/in the absence of chemical substance (yeast gene YER120W): 1.1
- The level of expressed mRNA in the presence of chemical substance/The level of expressed mRNA in the absence of chemical substance (yeast gene YER178W): 2.5
- level of expressed mRNA in the presence/in the absence of chemical substance (yeast gene YFL011W): 2.1
- The level of expressed mRNA in the presence of chemical substance/The level of expressed mRNA in the absence of chemical substance (yeast gene YFL014W): 5.0
- The level of expressed mRNA in the presence of chemical substance/The level of expressed mRNA in the absence of chemical substance (yeast gene YFL030W): 5.4
- The level of expressed mRNA in the presence of chemical substance/The level of expressed mRNA in the absence of chemical substance (yeast gene YFL031W): 1.2
- The level of expressed mRNA in the presence of chemical substance/The level of expressed mRNA in the absence of chemical substance (yeast gene YFL056C): 68.3
- The level of expressed mRNA in the presence of chemical substance/The level of expressed mRNA in the absence of chemical substance (yeast gene YFL057C): 27.7
- The level of expressed mRNA in the presence of chemical substance/The level of expressed mRNA in the absence of chemical substance (yeast gene YFR015C): 3.9
- The level of expressed mRNA in the presence of chemical substance/The level of expressed mRNA in the absence of chemical substance (yeast gene YFR047C): 2.3
- level of expressed mRNA in the presence/in the absence of chemical substance (yeast gene YGL012W): 0.6
- The level of expressed mRNA in the presence of chemical substance/The level of expressed mRNA in the absence of chemical substance (yeast gene YGL022W): 0.8
- level of expressed mRNA in the presence/in the absence of chemical substance (yeast gene YGL115W): 1.0
- The level of expressed mRNA in the presence of chemical substance/The level of expressed mRNA in the absence of chemical substance (yeast gene YGL126W): 1.0
- level of expressed mRNA in the presence/in the absence of chemical substance (yeast gene YGL205W): 0.4
- The level of expressed mRNA in the presence of chemical substance/The level of expressed mRNA in the absence of chemical substance (yeast gene YGL209W): 0.8
- The level of expressed mRNA in the presence of chemical substance/The level of expressed mRNA in the absence of chemical substance (yeast gene YGL248W): 1.0
- The level of expressed mRNA in the presence of chemical substance/The level of expressed mRNA in the absence of chemical substance (yeast gene YGR037C): 1.4
- The level of expressed mRNA in the presence of chemical substance/The level of expressed mRNA in the absence of chemical substance (yeast gene YGR055W): 1.5
- level of expressed mRNA in the presence/in the absence of chemical substance (yeast gene YGR096W): 0.8
- level of expressed mRNA in the presence/in the absence of chemical substance (yeast gene YGR191W): 1.6
- The level of expressed mRNA in the presence of chemical substance/The level of expressed mRNA in the absence of chemical substance (yeast gene YGR194C): 0.7
- level of expressed mRNA in the presence/in the absence of chemical substance (yeast gene YGR204W): 2.1
- The level of expressed mRNA in the presence of chemical substance/The level of expressed mRNA in the absence of chemical substance (yeast gene YGR256W): 2.7
- The level of expressed mRNA in the presence of chemical substance/The level of expressed mRNA in the absence of chemical substance (yeast gene YGR282C): 1.5
- level of expressed mRNA in the presence/in the absence of chemical substance (yeast gene YGR288W): 1.3
- level of expressed mRNA in the presence/in the absence of chemical substance (yeast gene YHR025W): 2.1
- The level of expressed mRNA in the presence of chemical substance/The level of expressed mRNA in the absence of chemical substance (yeast gene YHR111W): 1.9
- level of expressed mRNA in the presence/in the absence of chemical substance (yeast gene YHR123W): 1.2
- The level of expressed mRNA in the presence of chemical substance/The level of expressed mRNA in the absence of chemical substance (yeast gene YHR137W): 0.6
- The level of expressed mRNA in the presence of chemical substance/The level of expressed mRNA in the absence of chemical substance (yeast gene YHR174W): 1.4
- The level of expressed mRNA in the presence of chemical substance/The level of expressed mRNA in the absence of chemical substance (yeast gene YHR176W): 1.2
- level of expressed mRNA in the presence/in the absence of chemical substance (yeast gene YHR210C): 1.5
- level of expressed mRNA in the presence/in the absence of chemical substance (yeast gene YIL006W): 1.0
- The level of expressed mRNA in the presence of chemical substance/The level of expressed mRNA in the absence of chemical substance (yeast gene YIL045W): 1.2
- The level of expressed mRNA in the presence of chemical substance/The level of expressed mRNA in the absence of chemical substance (yeast gene YIL107C): 0.9
- The level of expressed mRNA in the presence of chemical substance/The level of expressed mRNA in the absence of chemical substance (yeast gene YIL154C): 1.2
- The level of expressed mRNA in the presence of chemical substance/The level of expressed mRNA in the absence of chemical substance (yeast gene YIL155C): 1.3
- The level of expressed mRNA in the presence of chemical substance/The level of expressed mRNA in the absence of chemical substance (yeast gene YIL167W): 1.9
- The level of expressed mRNA in the presence of chemical substance/The level of expressed mRNA in the absence of chemical substance (yeast gene YIR017C): 4.2
- The level of expressed mRNA in the presence of chemical substance/The level of expressed mRNA in the absence of chemical substance (yeast gene YIR034C): 3.0
- The level of expressed mRNA in the presence of chemical substance/The level of expressed mRNA in the absence of chemical substance (yeast gene YIR036C): 2.8
- The level of expressed mRNA in the presence of chemical substance/The level of expressed mRNA in the absence of chemical substance (yeast gene YJL031C): 1.9
- The level of expressed mRNA in the presence of chemical substance/The level of expressed mRNA in the absence of chemical substance (yeast gene YJL068C): 3.2
- The level of expressed mRNA in the presence of chemical substance/The level of expressed mRNA in the absence of chemical substance (yeast gene YJL088W): 0.9
- The level of expressed mRNA in the presence of chemical substance/The level of expressed mRNA in the absence of chemical substance (yeast gene YJL099W): 0.9
- level of expressed mRNA in the presence/in the absence of chemical substance (yeast gene YJL121C): 1.1
- level of expressed mRNA in the presence/in the absence of chemical substance (yeast gene YJL167W): 1.2
- The level of expressed mRNA in the presence of chemical substance/The level of expressed mRNA in the absence of chemical substance (yeast gene YJL172W): 1.4
- level of expressed mRNA in the presence/in the absence of chemical substance (yeast gene YJL216C): 1.1
- The level of expressed mRNA in the presence of chemical substance/The level of expressed mRNA in the absence of chemical substance (yeast gene YJL219W): 2.3
- level of expressed mRNA in the presence/in the absence of chemical substance (yeast gene YJR077C): 1.6
- The level of expressed mRNA in the presence of chemical substance/The level of expressed mRNA in the absence of chemical substance (yeast gene YJR137C): 2.0
- level of expressed mRNA in the presence/in the absence of chemical substance (yeast gene YJR143C): 1.3
- The level of expressed mRNA in the presence of chemical substance/The level of expressed mRNA in the absence of chemical substance (yeast gene YJR148W): 0.6

Reference: patent US8192962B2, “Processes for detecting toxic substances” (Daikin Industries, Ltd., priority 2001, dated 2012)
